Measured values: patent US20060088886A1, “Topiramate analogs” (priority 2004, published 2006)

How the values were obtained:
[1] = system: anti-topiramate antibodies prepared with immunogen (17); test: ELISA binding inhibition study (avidity), free topiramate vs coated antigens; parameters: species or system Rabbit; settings: for Abs Antigen 16 / Abs Antigen 19 / Abs Antigen 20: 405 nm
Procedure: ELISA plates for use in an ELISA assay are prepared in order to study the polyclonal antibody prepared as described in Example 21. As such, various topiramate antigens (16), (19), and (20) are coated on different ELISA plates before being subjected to the anti-topiramate antibody and competing free topiramate. More particularly, the topiramate antigens are diluted in coating buffer, and then added to the wells of ELISA plate. After the ELISA plate is inculcated for 60 min at 37° C., the solvent in the coating buffer is decanted and a blocking buffer is added to the plate. The plate is incubated again for 60 min at 37° C., and the solvent in the blocking buffer is decanted from the plate. The ELISA plate is then stored with the blocking agent in the wells at 2-8° C. for up to 1 week. The avidity of the anti-topiramate antibodies prepared with immunogen (17) for topirainate analogs are determined by a binding inhibition study. As such, samples are prepared in 1 mL of PBS at pH 7.4 with 0.1% BSA. A composition having 30% Bmax titer or 50% Bmax titer is used to divide the obtained titer value into approximately half the titer value. Using 30% Bmax, an antibody titer of 1:10000 is diluted to 1:5000 during the sample preparation stage. About 50 μL of topiramate at different concentrations or calibrator values, (0, 2, 4, 8, 16, 32 μg/ml) are then applied to a plate as prepared in accordance with Example 22. About 50 μL of the diluted antibody is dispensed into the plate, and the compositions in the plate are mixed for 1 min on a horizontal plate shaker. The plate is characterized by a first row not containing topiramate or anti-topiramate antibody, wherein the first row is used as a negative control. A second row not containing topiramate is used as the positive control. The plate is incubated for 60 min, and washed three times with 250 μL of PBS at pH 7.4 with 0.05% tween. About 125 μL of a diluted second antibody conjugate such as antigens (16), (19), or (20), in PBS at pH 7.4 is added to each well of the plate. Titer is determined experimentally by the plate being incubated for 60 min at 37° C. and washed 3 times with 250 μL PBS, pH 7.4 with 0.05% tween. Subsequently, about 125 μL of ABTS substrate is added to each well of the plate and incubated for 20 min.

[2] = cited from earlier work
[3] = Rabbit No. 5481, topiramate 2 μg/ml
[4] = Rabbit No. 5481, topiramate 4 μg/ml
[5] = Rabbit No. 5481, topiramate 8 μg/ml
[6] = Rabbit No. 5481, topiramate 16 μg/ml
[7] = Rabbit No. 5481, topiramate 32 μg/ml
[8] = Rabbit No. 5492, topiramate 2 μg/ml
[9] = Rabbit No. 5492, topiramate 4 μg/ml
[10] = Rabbit No. 5492, topiramate 8 μg/ml
[11] = Rabbit No. 5492, topiramate 16 μg/ml
[12] = Rabbit No. 5492, topiramate 32 μg/ml
[13] = dose escalation add-on studies, morning trough serum

- B/Bo Antigen 16 [1, 3]: 0.38
- B/Bo Antigen 19 [1, 3]: 0.40
- B/Bo Antigen 20 [1, 3]: 0.53
- Abs Antigen 16 [1, 3]: 0.29
- Abs Antigen 19 [1, 3]: 0.33
- Abs Antigen 20 [1, 3]: 0.32
- B/Bo Antigen 16 [1, 4]: 0.34
- B/Bo Antigen 19 [1, 4]: 0.30
- B/Bo Antigen 20 [1, 4]: 0.50
- Abs Antigen 16 [1, 4]: 0.26
- Abs Antigen 19 [1, 4]: 0.25
- Abs Antigen 20 [1, 4]: 0.30
- B/Bo Antigen 16 [1, 5]: 0.24
- B/Bo Antigen 19 [1, 5]: 0.24
- B/Bo Antigen 20 [1, 5]: 0.42
- Abs Antigen 16 [1, 5]: 0.18
- Abs Antigen 19 [1, 5]: 0.20
- Abs Antigen 20 [1, 5]: 0.25
- B/Bo Antigen 16 [1, 6]: 0.20
- B/Bo Antigen 19 [1, 6]: 0.22
- B/Bo Antigen 20 [1, 6]: 0.37
- Abs Antigen 16 [1, 6]: 0.15
- Abs Antigen 19 [1, 6]: 0.18
- Abs Antigen 20 [1, 6]: 0.22
- B/Bo Antigen 16 [1, 7]: 0.14
- B/Bo Antigen 19 [1, 7]: 0.18
- B/Bo Antigen 20 [1, 7]: 0.30
- Abs Antigen 16 [1, 7]: 0.11
- Abs Antigen 19 [1, 7]: 0.15
- Abs Antigen 20 [1, 7]: 0.18
- B/Bo Antigen 16 [1, 8]: 0.56
- B/Bo Antigen 19 [1, 8]: 0.38
- B/Bo Antigen 20 [1, 8]: 0.64
- Abs Antigen 16 [1, 8]: 0.25
- Abs Antigen 19 [1, 8]: 0.31
- Abs Antigen 20 [1, 8]: 0.45
- B/Bo Antigen 16 [1, 9]: 0.44
- B/Bo Antigen 19 [1, 9]: 0.28
- B/Bo Antigen 20 [1, 9]: 0.59
- Abs Antigen 16 [1, 9]: 0.20
- Abs Antigen 19 [1, 9]: 0.23
- Abs Antigen 20 [1, 9]: 0.41
- B/Bo Antigen 16 [1, 10]: 0.33
- B/Bo Antigen 19 [1, 10]: 0.23
- B/Bo Antigen 20 [1, 10]: 0.54
- Abs Antigen 16 [1, 10]: 0.15
- Abs Antigen 19 [1, 10]: 0.19
- Abs Antigen 20 [1, 10]: 0.38
- B/Bo Antigen 16 [1, 11]: 0.29
- B/Bo Antigen 19 [1, 11]: 0.20
- B/Bo Antigen 20 [1, 11]: 0.54
- Abs Antigen 16 [1, 11]: 0.13
- Abs Antigen 19 [1, 11]: 0.17
- Abs Antigen 20 [1, 11]: 0.38
- B/Bo Antigen 16 [1, 12]: 0.02
- B/Bo Antigen 19 [1, 12]: 0.18
- B/Bo Antigen 20 [1, 12]: 0.40
- Abs Antigen 16 [1, 12]: 0.01
- Abs Antigen 19 [1, 12]: 0.15
- Abs Antigen 20 [1, 12]: 0.28
Structure (SMILES): CC1(C)O[C@@H]2[C@@H](CO[C@@]3(COS(N)(=O)=O)OC(C)(C)O[C@@H]23)O1 [Topiramate, 2,3:4,5-di-O-isopropylidene-beta-D-fructopyranose sulfamate]
- serum concentration at which a reduction in seizure control was seen [2, 13]: greater than 75 μmol/L
- serum concentration with significant increase in side effects [2, 13]: > 60 µM
- systemic topiramate concentrations ([2]; patients receiving higher doses, up to 2000 mg): ≤ 80 µmol/L
